Where two headings read alike, the source gives them in different places.
What was measured:
[1] = tested on: Phosphorylation of ERK1/2 in MIA PaCa-2 (G12C) cells; experiment: Phospho-ERK1/2 MSD Assay; type: cell-based; conditions: Homo sapiens; 2 h compound treatment, MIA PaCa-2 cells; read-out: basal p-ERK 2 h MIA PaCa-2 (G12C) IC50 IP
Description: Phospho-ERK1/2 MSD Assay: MIA PaCa-2 (ATCC® CRL-1420™) cells were cultured in RPMI 1640 Medium (ThermoFisher Scientific 11875093) containing 1% fetal bovine serum (ThermoFisher Scientific 16000044) and 1× penicillin-streptomycin-glutamine (ThermoFisher Scientific 10378016). Sixteen hours prior to compound treatment, MIA PaCa-2 cells were seeded in 96-well cell culture plates at a density of 25,000 cells/well and incubated at 37° C., 5% C02. A compound dose-response titration was diluted in growth media, added to appropriate wells of a cell culture plate, and then incubated at 37° C., 5% C02 for 2 or 4 hours (see Table 15). Following compound treatment, cells were washed with ice-cold Dulbecco's phosphate-buffered saline, no Ca^2+or Mg^2+(ThermoFisher Scientific 14190144), and then lysed in RIPA buffer (50 mM Tris-HCl pH 7.5, 1% Igepal, 0.5% sodium deoxycholate, 150 mM NaCl, and 0.5% sodium dodecyl sulfate) containing protease inhibitors (Roche 4693132001) and phosphatase inhibitors (Roche 4906837001). Phosphorylation of ERK1/2 in compound-treated lysates was assayed using Phospho-ERK1/2 Whole Cell Lysate kits (Meso Scale Discovery K151DWD) according to the manufacturer's protocol. Assay plates were read on a Meso Scale Discovery Sector Imager 6000, and data were analyzed using a 4-parameter logistic model to calculate IC50 values.

[2] = target: GDP-bound KRAS protein (aa 1-169) G12C/C118A (Homo sapiens (Human), UniProt P01116, C118A/G12C); experiment: Coupled Nucleotide Exchange Assay (KRAS G12C); type: biochemical
Description: (§1) Coupled Nucleotide Exchange Assay: Purified GDP-bound KRAS protein (aa 1-169), containing either G12C or G12D, as well as C118A amino acid substitutions and an N-terminal His-tag, was pre-incubated in assay buffer (25 mM HEPES pH 7.4, 10 mM MgCl2, and 0.01% Triton X-100) with a compound dose-response titration for either 5 min or 20 hours (see Table 15). Following compound pre-incubation, purified SOS protein (aa 564-1049) and GTP (Roche 10106399001) were added to the assay wells and incubated for an additional 30 min. To determine the extent of inhibition of SOS-mediated nucleotide exchange, purified GST-tagged cRAF (aa 1-149), nickel chelate AlphaLISA acceptor beads (PerkinElmer AL108R), and AlphaScreen glutathione donor beads (PerkinElmer 6765302) were added to the assay wells and incubated for 10 minutes. The assay plates were then read on a PerkinElmer EnVision Multilabel Reader, using AlphaScreen® technology, and data were analyzed using a 4-parameter logistic model to calculate IC50 values.

[3] = target: GDP-bound KRAS protein (aa 1-169) G12D/C118A (Homo sapiens (Human), UniProt P01116, C118A/G12D); experiment: Coupled Nucleotide Exchange Assay (KRAS G12D); type: biochemical; conditions: 20 h compound pre-incubation; read-out: GDP KRAS G12D 20 h Coupled Exchange IC50 IP
Description: as §1

[4] = target: GDP-KRAS G12D (Homo sapiens, UniProt P01116, C118A/G12D); experiment: GDP-KRAS G12D RF-MS Assay; type: binding; conditions: 100 μM inhibitor, 20 h incubation, 2 uM KRAS G12D
Description: GDP-KRAS G12D RF-MS Assay: MS assays were performed in the following buffer: 25 mM HEPES pH 7.4, 20 mM MgCl2, 10 mM NaCl, 3% DMSO, 0.0005% CHAPS with 100 μM GDP made fresh and added to the assay buffer. The final concentration of KRAS G12D was 2 uM. Assay incubation times were 20 h and the inhibitor concentration was 100 μM. Greiner polypropylene clear V-bottom plates were used for the mass spectrometry assays. Typically, the reaction was initiated by addition of KRAS G12D to a well containing inhibitor followed by Rapidfire MS analysis. Relative % Bound values at the various incubation times were used to estimate a kobs value at 100 uM inhibitor.
RapidFire Sample Liquid handling System: The RapidFire liquid handling unit used was the RF 360 model. Solvents were delivered by Agilent 1260 Infinity pumps. The instrument control software was the Agilent RapidFire High Throughput MS-system software (v4.0.12333.14274). A single C4 Type A (Agilent technologies, G9203) SPE-cartridge was used for these experiments. A volume of 10 μL (sample loop determined) was removed from each well of a 384-well plate by using an aspiration time of 300 ms. The sample load/wash time was 6000 ms at a flow rate of 1.25 mL/min (H2O, 0.1% v/v formic acid, 0.05% v/v trifluoroacetic acid); elution time was 7000 ms (acetonitrile, 0.1% v/v formic acid, 0.05% v/v trifluoroacetic acid); re-equilibration time was 700 ms at a flow rate of 1.25 mL/min (H2O, 0.1% v/v formic acid, 0.05% v/v trifluoroacetic acid).
Mass Spectrometry: Mass spectrometric data was acquired on an Agilent 6530 quadrupole time-of-flight (ToF) MS system, operated with a dual Agilent Jet Spray (AJS) ion source, in positive ionization mode. The instrument parameters were as follows: gas temperature 350° C.; drying gas 5 L/min; nebulizer 60 psi; sheath gas 350° C.; sheath gas flow 11 L/min; capillary 3.5 kV (0.037 μA); nozzle 1.75 kV; fragmentor 200 V; skimmer 75 V; octapole RF 800 V peak-to-peak. Data was acquired at the rate of 5 spectra/s. The mass scale was calibrated using the Agilent positive ion tune mix, over the m/z range 300-3200. The instrument control software was Agilent MassHunter Workstation Data Acquisition (vB.05.01).
Mass Spectrometry Data Processing and Informatics: All data processing was performed using a HP Z620, 64-bit, 12-processor, Windows 7 PC, using a combination of Agilent MassHunter Qualitative Analysis (B.05.00) Agilent RapidFire control software (v4.0.12333.14070) and the Agilent DA Reprocessor Offline Utilities B.05.00, Build 162. The SPE-MS data acquired from the RapidFire-MS system is typically a single SPE-MS data file composed of multiple injection events. For effective charge state extraction, SPE-peak integration and subsequent MS-spectral deconvolution, the single SPE-MS data file is split into single injection events. This is typically performed off-line and achieved through the RapidFire User Interface software, using the Agilent RapidFire control software (v4.0.12333.14070) using the Convert MS Data option. Once the individual injection-event MS-data files have been produced, they are all batch processed using the DA Reprocessor Offline Utilities (B.05.00, Build 162, Agilent). For batch processing a method file was created using Agilent MassHunter Qualitative Analysis B.05.00. The details of this method file are contained within the BioConfirm Workflow and are as follows: Integrate (MS), Integrator Selection: General, smooth option selected; detector point sampling 1; start threshold 5.0; stop threshold 0.0; filtering 5 point; peak location, top. Extract (MS): Peak Spectrum Extraction (MS) within m/z 800-1400. Deconvolute (MS) Maximum Entropy: mass range 19,000-21,000 Daltons; Mass step 1.0 Da; S/N threshold 20.0; Use limited m/z range 800-1400; adduct proton; isotope peak width automatic; minimum consecutive charge states 5. […]

[5] = 5 min compound pre-incubation, read-out: GDP KRAS G12C 5 min Coupled Exchange IC50 IP
[6] = 20 h compound pre-incubation, read-out: GDP KRAS G12C 20 h Coupled Exchange IC50 IP

Chain of GDP-bound KRAS protein (aa 1-169) G12C/C118A (P01116 other isoform, or with tags, fused parts or gaps G12C/C118A): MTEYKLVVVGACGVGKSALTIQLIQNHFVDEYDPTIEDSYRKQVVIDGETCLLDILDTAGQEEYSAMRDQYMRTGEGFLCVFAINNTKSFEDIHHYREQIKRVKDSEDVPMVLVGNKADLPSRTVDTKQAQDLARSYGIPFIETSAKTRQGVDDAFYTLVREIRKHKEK
Chain of GDP-bound KRAS protein (aa 1-169) G12D/C118A (P01116 other isoform, or with tags, fused parts or gaps G12D/C118A): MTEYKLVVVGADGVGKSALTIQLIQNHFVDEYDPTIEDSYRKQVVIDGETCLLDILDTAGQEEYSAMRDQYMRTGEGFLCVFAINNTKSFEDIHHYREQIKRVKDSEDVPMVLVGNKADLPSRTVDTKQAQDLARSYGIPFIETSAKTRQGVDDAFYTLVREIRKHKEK

| SMILES | IC50 [1] | IC50 [2, 5] | IC50 [2, 6] | IC50 [3] | GDP-KRAS G12D RF-MS 100 μM 20 h Relative % Bound [4] |
| --- | --- | --- | --- | --- | --- |
| Cc1ccnc(C(C)C)c1-n1c(=O)nc(N2CCN(C(=O)C=O)C[C@@H]2C)c2cc(Cl)c(-c3ccccc3F)nc21 [Example 4, (S)-2-(4-(6-chloro-7-(2-fluorophenyl)-1-(2-isopropyl-4-methylpyridin-3-yl)-2-oxo-1,2-dihydropyrido[2,3-d]pyrimidin-4-yl)-3-methylpiperazin-1-yl)-2-oxoacetaldehyde] | 0.711 µM |  |  |  |  |
| COC(=O)/C=C/C(=O)N1CCN(c2nc(=O)n(-c3c(C)ccnc3C(C)C)c3nc(-c4ccccc4F)c(Cl)cc23)[C@@H](C)C1 [Example 5, Methyl (S,E)-4-(4-(6-chloro-7-(2-fluorophenyl)-1-(2-isopropyl-4-methylpyridin-3-yl)-2-oxo-1,2-dihydropyrido[2,3-d]pyrimidin-4-yl)-3-methylpiperazin-1-yl)-4-oxobut-2-enoate] | 0.061 µM | 0.095 µM | 0.026 µM | > 250 µM |  |
| CCOC(=O)[C@@H]1O[C@H]1C(=O)N1CCN(c2nc(=O)n(-c3c(C)ccnc3C(C)C)c3nc(-c4ccccc4F)c(Cl)cc23)[C@@H](C)C1 [Example 19, Ethyl (2R,3R)-3-((S)-4-(6-chloro-7-(2-fluorophenyl)-1-(2-isopropyl-4-methylpyridin-3-yl)-2-oxo-1,2-dihydropyrido[2,3-d]pyrimidin-4-yl)-3-methylpiperazine-1-carbonyl)oxirane-2-carboxylate] | 0.096 µM | 0.216 µM | 0.005 µM | > 250 µM | 3.4% |

— patent US20240190862A1 (AMGEN INC., priority 2019, published 2024)
